In patent US20130345051A1, “FUNGICIDAL AND BACTERICIDAL COMPOSITION THAT COMPRISES VOLATILE ORGANIC COMPOUNDS OF NATURAL ORIGIN” (BIOFUNGITEK, SOCIEDAD LIMITADA, priority 2011, published 2013):
≈ marks a conversion by molar mass, not a printed value.

Assays:
Botrytis cinerea = test: Gas-phase bioassay in hermetically sealed vials, growth inhibition of the fungus Botrytis cinerea; format: cell-based; conditions: compound in the gas phase; for IC50: read-out: IC50 (50% inhibiting concentration)
Description: (§1) The antifungal and antibacterial activity of the VOC obtained in Example 1 was tested by bioassay in hermetically sealed vials in which the microorganism was cultured while being exposed to the compound under test in the gas phase at different concentrations. […] The IC50 (50% inhibiting concentration), the MIC (minimum inhibiting concentration) and the MLC (minimum lethal concentration) were calculated.

Erwinia carotovora = test: Gas-phase bioassay in hermetically sealed vials, growth inhibition of the bacterium Erwinia carotovora; format: cell-based; conditions: compound in the gas phase; for IC50: Pectobacterium carotovorum, read-out: IC50 (50% inhibiting concentration)
Description: as §1

Row | SMILES | MIC (minimum inhibiting concentration) (Botrytis cinerea) [mg/Lair] | MLC (minimum lethal concentration) (Botrytis cinerea) [mg/Lair] | IC50 (Botrytis cinerea) [µg/mL] | IC50 (Erwinia carotovora) [µg/mL] | MIC (minimum inhibiting concentration) (Erwinia carotovora) [mg/Lair] | MLC (minimum lethal concentration) (Erwinia carotovora) [mg/Lair]
1 | CC1(C)[C@@H]2CC[C@@]1(C)[C@H](O)C2 (racemic) [isoborneol] | 40 | 40 | 5 (≈ 32.4 µM) | > 150 | >150 | >150
2 | CCCCCCO [hexanol] | 20 | 40 | 15 (≈ 147 µM) | 150 (≈ 1470 µM) | >150 | >150
3 | CCCCC(CC)CO (stereo not drawn) [2-ethyl-1-hexanol] | 5 | 10 | 4 (≈ 30.7 µM) | 15 (≈ 115 µM) | 50 | 75
